The target of test [1] is T1, GAL4-DAF-12 (Caenorhabditis elegans, UniProt G5EFF5).
T1 construct: 184-754aa (DAF-12); expressed in transfected cells; host or cells: HEK293
Put plainly: Co-transfection assay: GAL4-DAF-12 and GAL4-responsive luciferase reporter in HEK293 cells. In kind it is cell-based, C. elegans. The settings on record: for Activation of DAF-12, initial compound screen: bile acids 10 μM with IBAT co-transfected, assays in the presence or absence of co-transfected DAF-9; for DAF-9 independent activation of GAL4-DAF-12 (in words): 10 μM sterol, without DAF-9. For orientation: In a reporter assay the amount or activity of a reporter protein is the signal.

Test [2] concerns daf-9(dh6) null worms. Put plainly: Rescue of daf-9 null worms by extracts of sterols incubated with DAF-9 or control microsomes. The conditions noted are these: for effect on daf-9 animals, DAF-9 microsomes (in words) / rescue of the Daf-c phenotypes: extracts from DAF-9 microsomes incubated with 100 μM sterol; for effect on daf-9 phenotypes, control microsomes (in words): extracts from control (hOR only) microsomes incubated with 100 μM sterol; for complete rescue of Daf-c and Mig phenotypes, animals tested: DAF-9 microsome reactions (100 μM sterol) diluted 8-fold.
Experimental: Microsomes containing hOR or hOR and Daf-9 generated from Sf9 cells were thawed on ice and added to a final concentration of 0.5 mg/mL in 0.1M potassium phosphate buffer in the presence of an NADPH regenerating system (50 U/mL DL-isocitrate dehydrogenase, 0.1 M isocitrate and 0.1 M MgCl2). Substrates were added from stock solutions at 10^−2 M to a final concentration of 100 μM (final reaction volume of 0.5 mL). The mixture was preincubated for 3 min at 37° C. and the reaction was initiated by the addition of NADPH (1 mM). After 16 hrs, the reactions were stopped by extraction with 2×2 mL of methyl-tert-butyl-ether and the top layers were combined and dried under nitrogen. In some experiments, 0.5 μg of 1,4-cholestadiene-3-one was added as an internal standard for the extraction.
Individual 3-keto sterols and their respective 3β-hydroxy sterols were incubated with Sf9 cell microsomes co-expressing DAF-9 and the human P450 oxidoreductase (hOR). As a control, microsomes from cells expressing hOR alone were used.

For test [3], the target named is T2, human CYP27A1 (Homo sapiens, UniProt Q02318).
T2 construct: expressed in transfected cells; host or cells: HEK293
T2 sequence (Q02318 34-531): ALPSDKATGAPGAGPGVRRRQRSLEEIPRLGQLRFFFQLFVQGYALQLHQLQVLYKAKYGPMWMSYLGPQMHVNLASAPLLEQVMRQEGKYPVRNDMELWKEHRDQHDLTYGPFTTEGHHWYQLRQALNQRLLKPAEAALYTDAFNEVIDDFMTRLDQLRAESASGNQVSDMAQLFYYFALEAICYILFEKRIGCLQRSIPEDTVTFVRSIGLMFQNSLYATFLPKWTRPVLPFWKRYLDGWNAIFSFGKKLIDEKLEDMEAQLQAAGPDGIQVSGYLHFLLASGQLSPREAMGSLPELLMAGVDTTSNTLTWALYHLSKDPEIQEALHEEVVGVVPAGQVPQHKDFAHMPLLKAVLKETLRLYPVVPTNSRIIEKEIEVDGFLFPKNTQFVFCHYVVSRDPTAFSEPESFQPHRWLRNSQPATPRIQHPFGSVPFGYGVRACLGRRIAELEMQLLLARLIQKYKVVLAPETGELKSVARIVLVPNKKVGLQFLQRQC
The experiment in a line: Co-transfection of HEK293 cells with GAL4-DAF-12, human CYP27A1 and bovine adrenodoxin. The conditions noted are these: sterol 25 μM; bovine adrenodoxin co-transfected. In kind it is cell-based.
Experimental: (§1) Therefore, the ability of CYP27A1 to metabolize 4-cholesten-3-one into a DAF-12 activator was tested.

Test [4] deals with T3, mouse CYP27A1 (Mus musculus, UniProt Q9DBG1).
T3 construct: expressed in transfected cells; host or cells: HEK293
T3 sequence (Q9DBG1 33-533): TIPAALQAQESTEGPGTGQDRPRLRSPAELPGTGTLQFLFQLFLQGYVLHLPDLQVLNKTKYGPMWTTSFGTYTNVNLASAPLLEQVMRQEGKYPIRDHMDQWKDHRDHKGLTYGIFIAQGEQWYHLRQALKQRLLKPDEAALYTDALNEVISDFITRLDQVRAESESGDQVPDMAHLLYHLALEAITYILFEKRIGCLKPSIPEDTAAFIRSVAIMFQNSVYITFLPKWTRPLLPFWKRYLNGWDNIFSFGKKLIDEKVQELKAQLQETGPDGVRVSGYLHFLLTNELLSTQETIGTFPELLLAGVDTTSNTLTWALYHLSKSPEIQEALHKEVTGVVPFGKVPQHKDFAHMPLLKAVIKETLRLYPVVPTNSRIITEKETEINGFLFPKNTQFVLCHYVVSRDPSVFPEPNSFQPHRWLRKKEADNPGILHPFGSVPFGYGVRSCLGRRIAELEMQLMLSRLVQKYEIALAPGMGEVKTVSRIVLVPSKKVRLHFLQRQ
The experiment in a line: Co-transfection of HEK293 cells with GAL4-DAF-12, mouse CYP27A1 and bovine adrenodoxin. In kind it is cell-based. The settings on record: sterol 25 μM; bovine adrenodoxin co-transfected.
Experimental: as §1

The test system of test [5] is DAF-12 in the presence of DAF-9. The experiment in a line: Co-transfection assay: GAL4-DAF-12 reporter in HEK293 cells with co-transfected DAF-9. It counts as cell-based, C. elegans. The conditions noted are these: 10 μM sterol; fold induction of RLU compared to ethanol control. The method, then:
To screen for sterol-derived ligands of DAF-12 a co-transfection assay in HEK293 cells was performed using a chimeric GAL4-DAF-12 receptor and a GAL4-responsive luciferase reporter. […] Our initial compound screen consisted of bile acids and known vertebrate steroid and endocrine hormones as these compounds are ligands for PXR, VDR and LXR, the closest vertebrate homologs of DAF-12 (Antebi et al., 2000; Mooijaart et al., 2005).

Test [6] has as its target DAF-12 ligand binding domain (Caenorhabditis elegans, UniProt G5EFF5). The settings on record: 1 μM sterol.
The test system of test [7] is daf-9(dh6) nulls. The experiment in a line: Rescue assay with pure steroids, daf-9(dh6) nulls. It counts as in vivo, C. elegans. The settings on record: for effect of 26-hydroxy-4-cholesten-3-one on daf-9 nulls (in words): concentrations as high as 33 μM.
For test [8], the system named is C. elegans. The conditions noted are these: in vivo; cited from earlier work.
The mark [9] stands for this setting: control microsome reactions (100 μM sterol) diluted 8-fold.
The mark [10] stands for this setting: extracts from DAF-9 microsomes incubated with sterol.

Consider 18 molecules from patent publication US10117878B2, “Ligands for nematode nuclear receptors and uses thereof” (priority 2006, dated 2018).

T1 sequence (G5EFF5 184-753): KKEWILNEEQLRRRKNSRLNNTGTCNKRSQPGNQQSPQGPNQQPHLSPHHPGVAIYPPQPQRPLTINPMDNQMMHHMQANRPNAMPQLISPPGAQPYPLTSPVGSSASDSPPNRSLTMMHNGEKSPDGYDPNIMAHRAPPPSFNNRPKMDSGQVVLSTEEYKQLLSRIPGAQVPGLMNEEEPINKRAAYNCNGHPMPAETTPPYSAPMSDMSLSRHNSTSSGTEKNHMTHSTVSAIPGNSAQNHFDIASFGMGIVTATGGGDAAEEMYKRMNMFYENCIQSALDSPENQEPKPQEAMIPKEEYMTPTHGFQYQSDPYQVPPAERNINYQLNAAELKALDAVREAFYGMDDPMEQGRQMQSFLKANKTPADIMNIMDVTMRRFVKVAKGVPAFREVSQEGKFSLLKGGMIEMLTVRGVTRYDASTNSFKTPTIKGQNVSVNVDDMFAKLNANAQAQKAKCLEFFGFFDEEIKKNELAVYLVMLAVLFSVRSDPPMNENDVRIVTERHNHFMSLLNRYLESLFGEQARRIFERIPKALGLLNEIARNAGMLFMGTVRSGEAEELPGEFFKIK
Sequence of DAF-12 ligand binding domain (G5EFF5 507-753): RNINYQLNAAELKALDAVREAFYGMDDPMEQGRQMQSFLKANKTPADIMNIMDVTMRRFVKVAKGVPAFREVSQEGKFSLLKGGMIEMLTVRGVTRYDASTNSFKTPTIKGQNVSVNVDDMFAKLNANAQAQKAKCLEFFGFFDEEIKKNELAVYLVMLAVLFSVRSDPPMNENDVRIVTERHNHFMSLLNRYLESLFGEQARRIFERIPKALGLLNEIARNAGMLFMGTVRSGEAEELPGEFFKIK

On to `C=C1/C(=C\C=C2/CCC[C@]3(C)[C@@H]([C@H](C)CCCC(C)(C)O)CC[C@@H]23)C[C@@H](O)C[C@@H]1O` [1,25-dihydroxyvitamin D3], for which, in test [1], the “Activation of DAF-12, initial compound screen” value was “No other bile acids or endocrine hormones tested activated DAF-12”.
Take `C[C@H](CCC(=O)O)[C@H]1CC[C@H]2[C@@H]3CC[C@@H]4CC(=O)CC[C@]4(C)[C@H]3CC[C@]12C` [3-keto-lithocholic acid]: the “Activation of DAF-12, initial compound screen” value in test [1] is given as “weak, micromolar activator of DAF-12 independent of DAF-9”.
Turning to `CC(C)CCC[C@@H](C)[C@H]1CC[C@H]2[C@@H]3CCC4=CC(=O)CC[C@]4(C)[C@H]3CC[C@]12C` [4-cholesten-3-one], in test [2], the “effect on daf-9 animals, DAF-9 microsomes (in words)” value (shortened to “effect on daf-9 animals”) is reported as “indistinguishable from wild-type adults”; the “rescue of the Daf-c phenotypes” value is on record as 100%; the “effect on daf-9 phenotypes, control microsomes (in words)” value (shortened to “effect on daf-9 phenotypes”) is listed as “did not rescue any daf-9 phenotypes”. In test [3], the “activation of GAL4-DAF-12 with co-transfected human CYP27A1” value is listed as “potent activation”. Moreover, in test [4], the “activation of GAL4-DAF-12 with co-transfected mouse CYP27A1” value was “potent activation”. Also, in test [5], the “activation of DAF-12 upon co-transfection with DAF-9” value worked out at 109 fold. For the same molecule, the “binding (in words)” value in test [6] was “no significant binding”. Besides, the “DAF-9 independent activation of GAL4-DAF-12 (in words)” value (from here on “DAF-9 independent activation”) in test [1] is listed as “required the presence of DAF-9”.
For `C[C@H](CCC(=O)O)[C@H]1CC[C@H]2[C@@H]3CC(=O)[C@@H]4C[C@H](O)CC[C@]4(C)[C@H]3CC[C@]12C` [6-keto-lithocholic acid], in test [1], the “Activation of DAF-12, initial compound screen” value was “No other bile acids or endocrine hormones tested activated DAF-12”.
For the molecule `C[C@H](CCC(=O)O)[C@H]1CC[C@H]2[C@@H]3C(=O)C[C@@H]4C[C@H](O)CC[C@]4(C)[C@H]3CC[C@]12C` [7-keto-lithocholic acid], the “Activation of DAF-12, initial compound screen” value in test [1] was “No other bile acids or endocrine hormones tested activated DAF-12”.
Consider `CC(C)(O)CC[C@@H](O)[C@](C)(O)[C@H]1CC[C@@]2(O)C3=CC(=O)[C@@H]4C[C@@H](O)[C@@H](O)C[C@]4(C)[C@H]3CC[C@]12C` [20-hydroxyecdysone], for which, in test [1], the “Activation of DAF-12, initial compound screen” value is on record as “No other bile acids or endocrine hormones tested activated DAF-12”.
On to `C[C@@H](CO)CCC[C@@H](C)[C@H]1CC[C@H]2[C@@H]3CCC4=CC(=O)CC[C@]4(C)[C@H]3CC[C@]12C` [(25R),26-hydroxy-4-cholesten-3-one], for which the “complete rescue of Daf-c and Mig phenotypes, animals tested” value in test [2] is 100%. The “daf-9 rescue by extracts from control microsome incubations (in words)” value in test [2] (setting [9]) is on record as “had no biological effect”. The “effect of 26-hydroxy-4-cholesten-3-one on daf-9 nulls (in words)” value in test [7] is recorded as “had no effect”. The “increase in binding units compared to vehicle control” value in test [6] is on record as 2 fold. For the same molecule, in test [1], the EC50 (commonly the midpoint of the concentration-response curve) is 2000 nM and the “DAF-9 independent activation” value is given as “strongly active”.
`C[C@H](CO)CCC[C@@H](C)[C@H]1CC[C@H]2[C@@H]3CCC4=CC(=O)CC[C@]4(C)[C@H]3CC[C@]12C` [(25S),26-hydroxy-4-cholesten-3-one]: the “complete rescue of Daf-c and Mig phenotypes, animals tested” value in test [2] was 100%. Moreover, in test [2] (setting [9]), the “daf-9 rescue by extracts from control microsome incubations (in words)” value was “only an incomplete rescue”, the molt defects came to 10% and the “sterile Mig adults” value was found to be 75%. The “effect of 26-hydroxy-4-cholesten-3-one on daf-9 nulls (in words)” value in test [7] is “still exhibit Mig and/or molting defects, and sterility”. Moreover, in test [7] (n>60), the “worms that bypass dauer” value turned out to be 93%. In test [6], the “binding (in words)” value is listed as “no significant binding”. Besides, in test [1], the response was half-maximal at 1000 nM (EC50) and the “DAF-9 independent activation” value is given as “strongly active”.
In the case of `C[C@H](CCC(=O)O)[C@H]1CC[C@H]2[C@@H]3[C@H](O)C[C@@H]4C[C@H](O)CC[C@]4(C)[C@H]3CC[C@]12C` [chenodeoxycholic acid], in test [1], the “Activation of DAF-12, initial compound screen” value is listed as “No other bile acids or endocrine hormones tested activated DAF-12”.
For the molecule `CC(C)CCC[C@@H](C)[C@H]1CC[C@H]2[C@@H]3CC=C4C[C@@H](O)CC[C@]4(C)[C@H]3CC[C@]12C` [cholesterol], in test [2], the “effect on daf-9 animals” value is “no effect was seen” and the “effect on daf-9 phenotypes” value is listed as “no effect was seen”.
As to `C[C@H](CCC(=O)O)[C@H]1CC[C@H]2[C@@H]3[C@H](O)C[C@@H]4C[C@H](O)CC[C@]4(C)[C@H]3C[C@H](O)[C@]12C` [cholic acid], the “Activation of DAF-12, initial compound screen” value in test [1] is “No other bile acids or endocrine hormones tested activated DAF-12”.
`C[C@]12C[C@H](O)[C@H]3[C@@H](CCC4=CC(=O)CC[C@@]43C)[C@@H]1CC[C@@H]2C(=O)CO` [corticosterone]: the “Activation of DAF-12, initial compound screen” value in test [1] is reported as “No other bile acids or endocrine hormones tested activated DAF-12”.
Take `CC(C)CCC[C@@H](C)[C@H]1CC[C@H]2C3=CC[C@H]4C[C@@H](O)CC[C@]4(C)[C@H]3CC[C@]12C` [lathosterol]: the “effect on the nematode life cycle as the sole dietary sterol” value in test [8] is listed as “supported full reproductive growth”. In test [2], the “effect on daf-9 animals” value is “exhibited the Mig phenotype and were sterile”; the “rescue of the Daf-c phenotypes” value was 83%; the “effect on daf-9 phenotypes” value was “no effect”.
For the molecule `CC(C)CCC[C@@H](C)[C@H]1CC[C@H]2C3=CC[C@H]4[C@H](C)[C@@H](O)CC[C@]4(C)[C@H]3CC[C@]12C` [lophenol], the “effect on the nematode life cycle as the sole dietary sterol” value in test [8] is on record as “constitutively entered dauer diapause”. Moreover, in test [2], the “effect on daf-9 animals” value was “had no effect” and the “effect on daf-9 phenotypes” value is “had no effect”.
Regarding `CC(C)CCC[C@@H](C)[C@H]1CC[C@H]2C3=CC[C@H]4[C@H](C)C(=O)CC[C@]4(C)[C@H]3CC[C@]12C` [lophenone], in test [2], the “effect on daf-9 animals” value was “resulted in rescue of Daf-c, none of these animals were normal” and the “effect on daf-9 phenotypes” value is reported as “dependent on DAF-9”. In addition, in test [2] (setting [10]), the “animals that failed to enter dauer, had molting defects, or were dead” value is on record as 42% and the “animals that were Mig” value worked out at 58%. Further, the “activation of DAF-12 upon co-transfection with DAF-9” value in test [5] is recorded as 103 fold. The “DAF-9 independent activation” value in test [1] was “required the presence of DAF-9”.
Take `CC(=O)[C@H]1CC[C@H]2[C@@H]3CC=C4C[C@@H](O)CC[C@]4(C)[C@H]3CC[C@]12C` [pregnenolone]: the “Activation of DAF-12, initial compound screen” value in test [1] is listed as “No other bile acids or endocrine hormones tested activated DAF-12”.
`CC(=O)[C@H]1CC[C@H]2[C@@H]3CCC4=CC(=O)CC[C@]4(C)[C@H]3CC[C@]12C` [progesterone]: the “Activation of DAF-12, initial compound screen” value in test [1] is on record as “No other bile acids or endocrine hormones tested activated DAF-12”.
With `C[C@]12CC[C@H]3[C@@H](CCC4=CC(=O)CC[C@@]43C)[C@@H]1CC[C@@H]2O` [testosterone], the “Activation of DAF-12, initial compound screen” value in test [1] is on record as “No other bile acids or endocrine hormones tested activated DAF-12”.
